# Test results as given in article PMC8453848, “Effect of GLPG1205, a GPR84 Modulator, on CYP2C9, CYP2C19, and CYP1A2 Enzymes: In Vitro and Phase 1 Studies” (Clinical Pharmacology in Drug Development, 2021).
# Where two headings read alike, the source gives them in different places.
# How the values were obtained:
# [1] = Test of solubility of GLPG1205 in culture medium for incubations; assay type: physicochemical; conditions: culture medium for incubation; final DMSO percentage 0.4%; read-out: limit of solubility in culture medium for incubations
# Description: Solubility and cytotoxicity experiments were performed prior to incubation of GLPG1205 with cells.
# Test of Solubility Prior to incubation of GLPG1205 with cells, a preliminary test of solubility was performed. Various stock solutions of GLPG1205 in dimethylsulfoxide (DMSO) were prepared. Different solutions were prepared by diluting the stock solutions in culture medium for incubation to obtain 100, 200, 250, 400 and 500 µM with different final percentages of solvent (maximum 0.5% DMSO, volume/volume [v/v]).
# [2] = Phase 1 drug-drug interaction study: plasma PK of GLPG1205; assay type: in vivo, human; conditions: for AUC: 100 mg
# Description: The protein precipitated mixture was centrifuged at approximately 14 000 g for 15 minutes at room temperature. The clear supernatant was diluted with dilution solvent (water with 0.05% of trifluoroacetic acid) and then transferred into LC-MS plates. […] Chromatographic separation was performed on a Kinetex C18 column (50 x 3.0 mm, 2.6 µm from Phenomenex, Torrance, CA, USA) set at 40°C by using a Nexera high performance liquid chromatography (HPLC) system (Shimadzu, Kyoto, Japan) in isocratic elution mode.
# CYP2C19 = CYP2C19 (Homo sapiens, UniProt P33261); assay: CYP2C19 inhibition, S-mephenytoin 4'-hydroxylase assay in human liver microsomes; assay type: in vitro ADME; parameters: from tissue; host or cells: in vivo, 14 healthy male subjects; conditions: for IC50: estimated
# Description: Inhibition of the biotransformation of CYP‐specific substrates by GLPG1205 was studied using human liver microsomes. Incubation was performed at 37°C with the following conditions: n = 3 for all assays; 0.1 M phosphate buffer (pH 7.4), the cofactor nicotinamide adenine dinucleotide phosphate (NADPH) incubated at 2 mM, the CYP‐specific substrate incubated at 1 nonsaturating concentration, and GLPG1205. Additional incubation was performed with (1) a 30‐minute preincubation step of GLPG1205 with microsomes before the addition of the cofactor NADPH and CYP substrate; and (2) a 30‐minute preincubation step of GLPG1205 with microsomes and the cofactor NADPH, before the addition of the CYP substrate. […] The CYP‐specific substrates were incubated per the above conditions at the following concentrations: tolbutamide, 200 μM, CYP2C9 substrate; S‐mephenytoin, 60 μM, CYP2C19 substrate; phenacetin, 40 μM, CYP1A2 substrate.
# Further details of the assays used for each CYP substrate are reported in the Supplemental Methods. Metabolites of the CYP‐specific substrates (acetaminophen for CYP1A2, hydroxytolbutamide for CYP2C9, hydroxymephenytoin for CYP2C19) were quantified using LC‐MS/MS.
# Enzymatic activity in the presence of GLPG1205 was expressed as a percentage of the control activity obtained with the vehicle only (ie, without GLPG1205 or reference inhibitor). Decreases in activity of less than 20% were not considered clinically relevant.
# Protocol for CYP Inhibition of the biotransformation of CYP-specific substrates by GLPG1205 was studied using human liver microsomes.^7 Incubations were performed at 37°C with the following conditions: n = 3 for all assays; 0.1 M phosphate buffer pH 7.4; the cofactor β-nicotinamide adenine dinucleotide phosphate (NADPH) incubated at 2 mM; the CYP-specific substrate incubated at one non-saturating concentration; and GLPG1205. Additional incubations were performed with: 1) a 30-minute preincubation step of GLPG1205 with microsomes before addition of the cofactor NADPH and CYP substrate; and 2) a 30-minute preincubation step of GLPG1205 with microsomes and the cofactor NADPH, before addition of the CYP substrate.
# The CYP-specific substrates were incubated at the following conditions: tolbutamide (200 µM; CYP2C9); S-mephenytoin (60 µM; CYP2C19); phenacetin (40 µM; CYP1A2).^8-10 Reference inhibitors (as detailed in the previous section) were incubated in parallel. […]
# A two-fold dilution in D3-OH-mephenytoine at 1 µM in water with 0.1% formic acid was applied to the supernatants and then analysis was performed by LC-MS/MS with chromatographic separation. […] The quantification of the metabolite, hydroxymephenytoin, was performed in MRM mode using the 235.1 to 150.2 transition. […]
# CYP1A2 = target: T1, CYP1A2 (Homo sapiens, UniProt P05177); assay: CYP1A2 inhibition, phenacetin O-deethylase assay in human liver microsomes; assay type: in vitro ADME; parameters: from tissue; host or cells: in vivo, 14 healthy male subjects; conditions: for IC50: estimated
# T1 sequence (P05177 1-516): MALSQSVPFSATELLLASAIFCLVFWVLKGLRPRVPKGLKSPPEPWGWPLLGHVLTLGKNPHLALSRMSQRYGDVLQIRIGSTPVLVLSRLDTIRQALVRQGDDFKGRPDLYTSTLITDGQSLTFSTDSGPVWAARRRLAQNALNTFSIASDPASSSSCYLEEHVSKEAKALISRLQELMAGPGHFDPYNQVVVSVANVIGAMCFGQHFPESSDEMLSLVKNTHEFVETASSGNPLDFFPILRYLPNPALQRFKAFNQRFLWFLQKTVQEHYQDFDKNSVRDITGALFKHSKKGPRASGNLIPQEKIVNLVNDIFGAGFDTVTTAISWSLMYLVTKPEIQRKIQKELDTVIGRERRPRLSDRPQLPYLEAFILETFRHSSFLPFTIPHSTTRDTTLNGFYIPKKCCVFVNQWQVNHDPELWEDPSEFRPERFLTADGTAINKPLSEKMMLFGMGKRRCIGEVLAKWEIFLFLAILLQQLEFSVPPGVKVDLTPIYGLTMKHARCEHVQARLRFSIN
# Description: Inhibition of the biotransformation of CYP‐specific substrates by GLPG1205 was studied using human liver microsomes. Incubation was performed at 37°C with the following conditions: n = 3 for all assays; 0.1 M phosphate buffer (pH 7.4), the cofactor nicotinamide adenine dinucleotide phosphate (NADPH) incubated at 2 mM, the CYP‐specific substrate incubated at 1 nonsaturating concentration, and GLPG1205. Additional incubation was performed with (1) a 30‐minute preincubation step of GLPG1205 with microsomes before the addition of the cofactor NADPH and CYP substrate; and (2) a 30‐minute preincubation step of GLPG1205 with microsomes and the cofactor NADPH, before the addition of the CYP substrate. GLPG1205 was tested at 6 concentrations: 0.5, 1, 5, 10, 50, and 100 μM (0.19, 0.38, 1.89, 3.78, 18.9, and 37.8 μg/mL, respectively), for each condition. The CYP‐specific substrates were incubated per the above conditions at the following concentrations: tolbutamide, 200 μM, CYP2C9 substrate; S‐mephenytoin, 60 μM, CYP2C19 substrate; phenacetin, 40 μM, CYP1A2 substrate.
# GLPG1205 was tested at 6 concentrations: 0.5, 1, 5, 10, 50 and 100 µM (0.19, 0.38, 1.89, 3.78, 18.9, 37.8 µg/mL, respectively).
# The CYP-specific substrates were incubated at the following conditions: tolbutamide (200 µM; CYP2C9); S-mephenytoin (60 µM; CYP2C19); phenacetin (40 µM; CYP1A2).^8-10 Reference inhibitors (as detailed in the previous section) were incubated in parallel. For all assays, the following controls were incubated in parallel: 1) with CYP substrate, without microsomes, with NADPH, without inhibitor (to check for substrate stability); 2) with CYP substrate, with microsomes, without NADPH, without inhibitor (to check for non-NADPH-dependent metabolism of substrate); and 3) without substrate, with microsomes, with NADPH, with test compound or reference inhibitor (to check for potential analytical interference).
# At the end of the incubation period, the reaction was stopped with the addition of 0.15 M phosphoric acid (300 µL); proteins were allowed to precipitate for a minimum of 1 hour at approximately 4°C. After centrifugation at 3200 g for 20 minutes at approximately + 4°C, supernatants were collected.
# Sequence of CYP2C19 (P33261 whole entry): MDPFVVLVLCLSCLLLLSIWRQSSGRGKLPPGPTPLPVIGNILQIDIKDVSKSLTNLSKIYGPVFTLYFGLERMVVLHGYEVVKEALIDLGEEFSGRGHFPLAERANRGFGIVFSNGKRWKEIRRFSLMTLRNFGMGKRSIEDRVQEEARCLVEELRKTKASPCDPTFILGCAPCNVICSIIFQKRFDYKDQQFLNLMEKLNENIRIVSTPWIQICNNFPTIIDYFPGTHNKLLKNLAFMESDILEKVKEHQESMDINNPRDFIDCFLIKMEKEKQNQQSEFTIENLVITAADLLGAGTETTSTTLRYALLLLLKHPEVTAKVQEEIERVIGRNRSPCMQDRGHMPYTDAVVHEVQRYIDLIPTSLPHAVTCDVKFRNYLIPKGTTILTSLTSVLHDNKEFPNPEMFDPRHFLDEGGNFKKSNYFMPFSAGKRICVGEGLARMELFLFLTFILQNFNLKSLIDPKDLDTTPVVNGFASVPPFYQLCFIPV
structure (smiles),measurement,setting,value
"O=c1nc(OC[C@@H]2COCCO2)cc2n1CCc1cc(C#CC3CC3)ccc1-2 [GLPG1205, 9‐cyclopropylethynyl‐2‐[(S)‐1‐(1,4)dioxan‐2‐ylmethoxy]‐6,7‐dihydropyrimido[6,1‐a]isoquinolin‐4‐one]",solubility at 24 h,[1],100 µM
same,day by which steady state was reached,"[2]; GLPG1205 100 mg once a day, trough plasma concentrations",≤ 9 days
same,AUC,"[2]; male, human, plasma, oral, day 13, GLPG1205 100 mg once a day, n = 5, arithmetic mean (CV%), read-out: AUC0‐inf",373 µg·h/mL
same,AUC,"[2]; male, human, plasma, oral, day 13, GLPG1205 100 mg once a day, n = 14, arithmetic mean (CV%), read-out: AUC0‐t",395 µg·h/mL
same,Cmax,"[2]; male, human, plasma, oral, day 13, GLPG1205 100 mg once a day, n = 14, arithmetic mean (CV%)",5010 ng/mL
same,half-life,"[2]; male, human, plasma, oral, day 13, GLPG1205 100 mg once a day, n = 14, arithmetic mean (CV%), read-out: t1/2, λz (converted)",74.1 h
same,tmax,"[2]; male, human, plasma, oral, day 13, GLPG1205 100 mg once a day, n = 14, median (min‐max)",2 h
same,inhibition of CYP2C19 in words,CYP2C19; GLPG1205 50‐100 μM,moderate and reversible
same,IC50,"CYP2C19; human liver microsomes, read-out: IC50 for inhibition of CYP2C19",≥ 50 µM
same,IC50,"CYP2C19; equivalent of ≥50 μM, read-out: IC50 for inhibition of CYP2C19, equivalent",≥ 49.9 µM
same,inhibition at 20 min,"CYP2C19; human, liver microsomes, pH 7.4, probe S-mephenytoin 60 µM, GLPG1205 50‐100 μM without preincubation, S‐mephenytoin 60 μM",44.2 to 49.3%
same,inhibition of CYP1A2 in words,CYP1A2; GLPG1205 50‐100 μM,Weak
same,IC50,"CYP1A2; human liver microsomes, read-out: IC50 for inhibition of CYP1A2",≥ 100 µM
same,IC50,"CYP1A2; equivalent of ≥100 μM, read-out: IC50 for inhibition of CYP1A2, equivalent",≥ 99.9 µM
same,"inhibition at 7 min, 100 µM","CYP1A2; human, liver microsomes, pH 7.4, probe phenacetin 40 µM, GLPG1205 100 μM following a 30‐minute preincubation with NADPH",52.9%
same,inhibition at 7 min,"CYP1A2; human, liver microsomes, pH 7.4, probe phenacetin 40 µM, GLPG1205 50‐100 μM, phenacetin 40 μM",20.4 to 38%
